This note sets out measurements from patent US20250326725A1, “PI4-Kinase Inhibitors and Methods of Using the Same” (The Board of Trustees of the Leland Stanford Junior …, priority 2019, published 2025).

One series concerns HCV. Put plainly: Anti-HCV assay (EC50). The class given is cell-based. The following applies: Hepatitis C virus, read-out: HCV EC50. The procedure: Anti-HCV assay: Anti-HCV assays are performed as described by Cho et al. “Identification of a class of HCV inhibitors directed against the nonstructural protein NS4B.” Sci. Transl. Med. 2011; 2(15):15ra6.
A further series relates to EV71. The series can be described thus: EV71 antiviral assay (EC50). The class given is cell-based, Enterovirus 71. The following applies: Enterovirus A, EV71.
A short description of series [1]: Cell toxicity (CC50) in HRV assay. Particulars: human, HRV CC50.
Series [2] in a line: Cell toxicity (CC50) in EV71 assay. Particulars: EV71 CC50.
The next series deals with EV68. Put plainly: EV68 antiviral assay (EC50). The class given is cell-based.
The nature of series [3]: Cell toxicity (CC50) in EV68 assay. Particulars: EV68 CC50.

The term EC50 denotes the concentration giving half of the maximal effect. By CC50 is commonly meant the concentration that lowers cell viability or growth by half. Read a high CC50 as lower toxicity to the cells.

With `COc1ccc(-c2sc(NC(C)(C)C3CCOCC3)nc2C)cc1S(=O)(=O)Nc1ccc(Br)nc1F` [Compound S-2], the concentration giving a half-maximal response (EC50) in the series on HCV is 0.0023 µM; with EV71, 0.0008 µM. The CC50 in series [1] worked out at 33.4 µM; in series [2], 66.6 µM.
The matching figures for `COc1ccc(-c2sc(NC(C)(C)C3CCOCC3)nc2C)cc1S(=O)(=O)NC1CCC(O)CC1` (stereo not drawn) [Compound S-5]: 0.0017 µM, 0.0008 µM, 57 µM and 47.2 µM.
For the compound `COc1ccc(-c2sc(NC(C)(C)C3CCOCC3)nc2C)cc1S(=O)(=O)Nc1ccc(F)cc1C` [Compound S-8], the EC50 in the series on HCV is 0.0008 µM; with EV71, 0.0003 µM. The CC50 worked out at 8.47 µM in series [1] and 91.9 µM in series [2].
`COc1ccc(-c2sc(NC(C)(C)C3CCOCC3)nc2C)cc1S(=O)(=O)NC1CCN(C(=O)OC(C)(C)C)CC1` [Compound S-9]: the values for the EC50 in the series with HCV, in the series with EV71 and in the series on EV68 were 0.005 µM, 0.0048 µM and 0.029 µM, respectively. In addition, the CC50 in series [1] worked out at 100 µM; in series [2] it was 69.3 µM; in series [3] it was 100 µM.
As for `COc1ccc(-c2sc(NC(C)(C)C3CCOCC3)nc2C)cc1S(=O)(=O)NC1CCS(=O)(=O)CC1` [Compound S-11], the figures for the EC50 in the series on HCV, in the series with EV71 and in the series with EV68 were 0.0571 µM, 0.0072 µM and 3.83 µM, respectively. In addition, the CC50 in series [1] was determined as 40.7 µM; in series [2], 26 µM; in series [3], 43.3 µM.
Consider `COc1ccc(-c2sc(NC(C)(C)C3CCOCC3)nc2C)cc1S(=O)(=O)NC1CCN(C(C)=O)CC1` [Compound S-12], for which the concentration for a half-maximal effect (EC50) was 0.0175 µM with HCV, 0.0041 µM with EV71 and 0.106 µM with EV68. In addition, the CC50 amounted to 65.9 µM in series [1], 53.8 µM in series [2] and 66.2 µM in series [3].
Take `COc1ccc(-c2sc(NC(C)(C)C3CCOCC3)nc2C)cc1S(=O)(=O)NC1CCN(S(C)(=O)=O)CC1` [Compound S-13]: the EC50 was determined as 0.0081 µM in the series with HCV, 0.0013 µM with EV71 and 0.0391 µM with EV68. Moreover, the results for the CC50 in series [1], in series [2] and in series [3] were 102 µM, 99.4 µM and 102 µM, respectively.
`COc1ccc(-c2sc(NC(C)(C)C3CCOCC3)nc2C)cc1S(=O)(=O)Nc1cccnc1C(F)(F)F` [Compound S-15]: the EC50 in the series with HCV turned out to be 0.082 µM; in the series on EV71 it was 0.0653 µM; with EV68, 0.335 µM. The CC50 in series [1] is 100 µM; in series [2], 100 µM; in series [3] it was 63.7 µM.
On to `COc1ccc(-c2sc(NC3(C4CCOCC4)CC3)nc2C)cc1S(=O)(=O)Nc1cccnc1C` [Compound S-16], for which the EC50 is 0.683 µM with HCV, 0.568 µM in the series on EV71 and 2.1 µM in the series on EV68. Besides, the values for the CC50 in series [1], in series [2] and in series [3] were 38.3 µM, 21.2 µM and 39.2 µM, respectively.
For the compound `COc1ccc(-c2sc(NC(C)(C)C3CCOCC3)nc2C)cc1S(=O)(=O)Nc1c(C)ncnc1C` [Compound S-17], the EC50 was found to be 0.0107 µM with HCV, 0.0037 µM with EV71 and 0.0255 µM in the series on EV68. Moreover, the values for the CC50 in series [1], in series [2] and in series [3] were 100 µM, 99.9 µM and 100 µM, respectively.
Turning to `COc1ccc(-c2sc(NC(C)(C)C3CCOCC3)nc2C)cc1S(=O)(=O)Nc1cccnc1OC` [Compound S-18], the EC50 came out at 0.0119 µM in the series with HCV, 0.0044 µM with EV71 and 0.014 µM in the series with EV68. The 50% cytotoxic concentration (CC50) amounted to 62.1 µM in series [1], 43.2 µM in series [2] and 80 µM in series [3].
Consider `COc1ccc(-c2sc(NC3(C4CCOCC4)CC3)nc2C)cc1S(=O)(=O)Nc1ccccc1Cl` [Compound S-19], for which the EC50 in the series on HCV is 0.0315 µM; in the series with EV71, 0.0158 µM; in the series on EV68, 22.1 µM. For the same compound, the CC50 turned out to be 37.7 µM in series [1], 18.3 µM in series [2] and 39.4 µM in series [3].
For the compound `COc1ccc(-c2sc(NC(C)(C)C3CCOCC3)nc2C)cc1S(=O)(=O)NC1CCN(C(=O)OC(F)(F)F)CC1` [Compound S-20], the EC50 was determined as 0.0257 µM in the series on HCV, 0.0036 µM in the series on EV71 and 0.0507 µM in the series on EV68. For the same compound, the CC50 in series [1] was found to be 49.4 µM; in series [2], 18.9 µM; in series [3] it was 51.6 µM.
On to `COc1ccc(-c2sc(NC(C)(C)C3CCN(C(C)=O)CC3)nc2C)cc1S(=O)(=O)Nc1cccnc1C` [Compound S-21], for which the EC50 was determined as 0.0024 µM in the series on HCV, 0.0031 µM in the series on EV71 and 0.0107 µM in the series with EV68. Also, the CC50 in series [1] was determined as 87.6 µM; in series [2] it was 91.3 µM; in series [3], 94.8 µM.
Take `COc1ccc(-c2sc(NC(C)(C)C3CCOCC3)nc2C)cc1S(=O)(=O)Nc1c(F)cccc1CO` [Compound S-22]: the EC50 worked out at 0.0027 µM with HCV, 0.0008 µM with EV71 and 0.0048 µM in the series with EV68. Besides, the cytotoxic concentration (CC50) was found to be 15.5 µM in series [1], 16.5 µM in series [2] and 19.3 µM in series [3].
Consider `COc1ccc(-c2sc(NC(C)(C)C3CCOCC3)nc2C)cc1S(=O)(=O)Nc1cncnc1C` [Compound S-23], for which the EC50 amounted to 0.138 µM with HCV, 0.049 µM with EV71 and 0.796 µM in the series with EV68. The CC50 in series [1] was found to be 100 µM; in series [2], 100 µM; in series [3], 66.1 µM.
On to `COc1ccc(-c2sc(NC(C)(C)C3CCOCC3)nc2C)cc1S(=O)(=O)Nc1ncc[nH]1` [Compound S-24], for which the results for the EC50 in the series on HCV, in the series on EV71 and with EV68 were 0.0037 µM, 0.0046 µM and 0.0111 µM, respectively. In addition, the CC50 in series [1] was 9.62 µM; in series [2] it was 73 µM; in series [3], 13.4 µM.
For the compound `COc1ccc(-c2sc(NC(C)(C)C3CCOCC3)nc2C)cc1S(=O)(=O)Nc1ncccc1C` [Compound S-25], the results for the EC50 with HCV, in the series with EV71 and in the series on EV68 were 0.0206 µM, 0.0141 µM and 0.0931 µM, respectively. Also, the CC50 in series [1] worked out at 24.8 µM; in series [2] it was 90.7 µM; in series [3], 24 µM.
As for `COc1ccc(-c2sc(NC(C)(C)C3CCOCC3)nc2C)cc1S(=O)(=O)Nc1ccncc1C(F)(F)F` [Compound S-26], the EC50 was 0.0181 µM in the series on HCV, 0.0023 µM in the series on EV71 and 1.41 µM with EV68. Besides, the CC50 amounted to 38.7 µM in series [1], 88.7 µM in series [2] and 39.1 µM in series [3].
With `COc1ccc(-c2sc(NC(C)(C)C3CCOCC3)nc2C)cc1S(=O)(=O)Nc1cccc2[nH]cc(Br)c12` [Compound S-27], the EC50 was 0.0023 µM in the series with HCV, 0.0036 µM with EV71 and 0.0059 µM with EV68. Also, the CC50 in series [1] was found to be 1.41 µM; in series [2] it was 6.23 µM; in series [3] it was 1.76 µM.
Turning to `COc1ccc(-c2sc(NC(C)(C)C3CCOCC3)nc2C)cc1S(=O)(=O)Nc1c(C)cc(F)cc1F` [Compound S-28], the EC50 with HCV was 0.0049 µM; in the series with EV71, 0.0042 µM; in the series with EV68, 0.0091 µM. For the same compound, the CC50 in series [1] is 87.4 µM; in series [2] it was 100 µM; in series [3], 77.6 µM.
For the compound `COc1ccc(-c2sc(NC(C)(C)C3CCOCC3)nc2C)cc1S(=O)(=O)Nc1nccn1C` [Compound S-29], the EC50 in the series on HCV came to 0.0057 µM; with EV71 it was 0.0098 µM; in the series with EV68, 0.0391 µM. Moreover, the half-maximal cytotoxic concentration (CC50) in series [1] came to 98.7 µM; in series [2], 100 µM; in series [3], 102 µM.
For the compound `COc1ccc(-c2sc(NC(C)(C)C3CCOCC3)nc2C)cc1S(=O)(=O)Nc1ccc(F)cc1C(F)F` [Compound S-30], the figures for the concentration giving a half-maximal response (EC50) in the series with HCV, with EV71 and in the series with EV68 were 0.0112 µM, 0.0022 µM and 0.0592 µM, respectively. The CC50 came out at 3.79 µM in series [1], 20.2 µM in series [2] and 6.45 µM in series [3].
As for `COc1ccc(-c2sc(NC(C)(C)C3CCOCC3)nc2C)cc1S(=O)(=O)Nc1c(F)cccc1C(F)F` [Compound S-31], the concentration for a half-maximal effect (EC50) in the series with HCV stood at 0.0005 µM; with EV71, 0.0002 µM; in the series with EV68, 0.0008 µM. The CC50 in series [1] is 52.3 µM; in series [2], 70.6 µM; in series [3], 61.8 µM.
On to `COc1ccc(-c2oc(NC(C)(C)c3ccccc3)nc2C)cc1S(=O)(=O)Nc1cccnc1C` [Compound S-33], for which the EC50 was 0.0001 µM with HCV, 0.0001 µM with EV71 and 0.0007 µM with EV68. For the same compound, the CC50 in series [1] was 30.5 µM; in series [2] it was 71.3 µM; in series [3] it was 5.23 µM.
As for `COc1ccc(-c2sc(NC(C)(C)c3ncccn3)nc2C)cc1S(=O)(=O)Nc1c(C)cccc1F` [Compound S-34], the EC50 was 0.001 µM in the series on HCV, 0.0018 µM in the series with EV71 and 0.0068 µM with EV68. Moreover, the cytotoxic concentration (CC50) in series [1] came out at 19.4 µM; in series [2] it was 100 µM; in series [3], 22.1 µM.
As to `COc1ccc(-c2sc(NC(C)(C)c3ncccn3)nc2C)cc1S(=O)(=O)Nc1ccccc1C(F)(F)F` [Compound S-35], the EC50 worked out at 0.0002 µM in the series on HCV, 0.0001 µM in the series with EV71 and 0.0006 µM with EV68. Also, the CC50 in series [1], in series [2] and in series [3] was 100 µM throughout.
As to `COC(=O)N1CCC(NS(=O)(=O)c2cc(-c3sc(NC(C)(C)c4ccccc4)nc3C)ccc2OC)CC1` [Compound S-36], the concentration giving a half-maximal response (EC50) amounted to 0.0001 µM in the series on HCV, 0.0001 µM in the series on EV71 and 0.0007 µM in the series with EV68. The figures for the CC50 in series [1], in series [2] and in series [3] were 30.5 µM, 71.3 µM and 5.23 µM, respectively.
